A value given as a limit tells only on which side of the number the result lay.

High affinity nerve growth factor receptor, sequence (P04629 whole entry): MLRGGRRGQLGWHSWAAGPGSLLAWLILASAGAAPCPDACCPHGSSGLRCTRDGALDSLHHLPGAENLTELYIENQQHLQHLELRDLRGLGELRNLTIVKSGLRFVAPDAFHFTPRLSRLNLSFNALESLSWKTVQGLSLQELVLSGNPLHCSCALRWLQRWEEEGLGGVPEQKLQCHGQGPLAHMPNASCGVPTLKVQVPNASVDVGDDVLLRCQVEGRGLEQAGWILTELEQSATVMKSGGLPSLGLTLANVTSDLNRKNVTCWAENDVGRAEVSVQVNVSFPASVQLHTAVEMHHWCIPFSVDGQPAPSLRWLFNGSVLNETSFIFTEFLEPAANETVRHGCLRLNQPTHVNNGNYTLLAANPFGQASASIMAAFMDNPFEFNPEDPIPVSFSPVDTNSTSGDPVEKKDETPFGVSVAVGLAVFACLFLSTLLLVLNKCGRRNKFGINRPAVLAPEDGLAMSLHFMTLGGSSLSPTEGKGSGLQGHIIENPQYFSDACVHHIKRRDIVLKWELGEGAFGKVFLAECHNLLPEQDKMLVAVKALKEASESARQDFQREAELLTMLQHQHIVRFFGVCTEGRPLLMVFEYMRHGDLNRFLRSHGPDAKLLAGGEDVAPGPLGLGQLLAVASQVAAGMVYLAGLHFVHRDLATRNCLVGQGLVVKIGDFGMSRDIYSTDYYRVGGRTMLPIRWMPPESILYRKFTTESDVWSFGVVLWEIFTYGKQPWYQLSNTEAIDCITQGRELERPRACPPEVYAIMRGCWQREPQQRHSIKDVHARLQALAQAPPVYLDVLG

This experiment has as its target High affinity nerve growth factor receptor (Homo sapiens, UniProt P04629). The experiment in a line: Inhibitory Activity Assay: TrkA, TrkB and TrkC:A testing platform for TrkA, TrkB and TrkC kinase activity was established based on Homogeneous Time-Resolved Fluorescence (HTRF) assay, and the activities of the compounds were tested using the platform. The compounds were subjected to three-fold gradient dilution with 100% DMSO with a starting concentration of 1 mM (11 concentrations in total). 4 μL of diluted sample for each concentration was added to 96 μL of reaction buffer (50 mM HEPES, pH7.4, 5 mM MgCl2, 1 mM NaVO3, 0.001% Tween-20, 0.01% BSA and 1 mM DTT) and mixed homogeneously to be used as a 4* compound. The reaction buffer was used to formulate 2* TrkA, TrkB and TrkC kinases (purchased from Carna Biosciences 08-186, 08-187, 08-197, and the final concentrations thereof were 0.5 nM, 0.1 nM, and 1 nM, respectively) and 4* substrate mixture (ATP+TK peptide) (wherein the final concentrations of ATP were 40 μM, 50 μM, and 20 μM, respectively; TK peptide, HTRF® KinEASE™-TK, was purchased from Cisbio, and the final concentration thereof was 100 nM) for use. 2.5 μL of the 4* compound was added to a 384-well plate (OptiPlate-384, purchased from PerkinElmer), and then 5 μL of the 2* TrkA, TrkB and TrkC kinases were added, and mixed homogeneously by centrifugation. Then 2.5 μL of the 4* substrate mixture was added to initiate the reaction (the total reaction volume is 10 μL). The 384-well plate was placed in an incubator and incubated for 60 min at 23° C. Then the reaction was terminated by adding 5 μL of Eu3+ cryptate-labeled anti-phosphotyrosine antibody (HTRF® KinEASE™-TK, purchased from Cisbio), and 5 μL of Streptavidin-XL-665 (HTRF® KinEASE™-TK, purchased from Cisbio). After incubated for 1 hr in the incubator, the fluorescence values were read on Envision (purchased from PerkinElmer). (In general: TR-FRET usually uses a lanthanide donor and a delayed reading to cut background.)
With `CC(C)(C)ONC(=O)c1c(N)nn2ccc(N3CCC[C@@H]3c3cc(F)ccc3F)nc12`, the IC50 (commonly the point on the concentration scale where inhibition reaches its midpoint) is below 1 nM.

Consider `N#Cc1c(N)nn2ccc(N3C[C@@H](F)C[C@@H]3c3cc(F)ccc3F)nc12`, for which the IC50 was below 1 nM.

Regarding `Nc1nn2ccc(N3CCC[C@@H]3c3cc(F)ccc3F)nc2c1Br`, the IC50 was below 25 nM.

As to `CCOC(=O)c1c(N)nn2ccc(N3C[C@H](O)CC3c3cc(F)ccc3F)nc12` (stereo partly specified), the IC50 is below 25 nM.

Regarding `CC1(C)OCC(CONC(=O)c2c(N)nn3ccc(N4CCC[C@@H]4c4cc(F)ccc4F)nc23)O1` (stereo partly specified), the IC50 was below 1 nM.

In the case of `CCOC(=O)c1c(N)nn2ccc(N3C[C@@H](O)CC3c3cc(F)ccc3F)nc12` (stereo partly specified), the IC50 was below 500 nM.

As for `Nc1nn2ccc(N3CCC[C@@H]3c3cc(F)ccc3F)nc2c1C(=O)NOCCO`, the IC50 is below 1 nM.

As for `NC(=O)c1c(N)nn2ccc(N3C[C@@H](O)C[C@@H]3c3cc(F)ccc3F)nc12`, the IC50 was below 25 nM.

Regarding `CC(C)(CO)ONC(=O)c1c(N)nn2ccc(N3CCC[C@@H]3c3cc(F)ccc3F)nc12`, the IC50 is below 1 nM.

Take `Nc1nn2ccc(N3CCC[C@@H]3c3cc(F)ccc3F)nc2c1C(=O)NC1CCC(O)CC1` (stereo partly specified): the IC50 was below 1 nM.

`CN(C)C(=O)c1c(N)nn2ccc(N3CCC[C@@H]3c3cc(F)ccc3F)nc12`: the concentration for half-maximal inhibition (IC50) was below 25 nM.

For the origin of these results see ChEMBL document CHEMBL5728097, “Amino pyrazolopyrimidine compound used as neurotrophic factor tyrosine kinase receptor inhibitor” (2020).
